Biological target: T1, Nfo (AP endonuclease Nfo, endonuclease IV) (Escherichia coli, UniProt P0A6C1)
T1 construct: full-length from pET-11a with nfo gene, expressed in E. coli BL21(DE3); 30 kDa, 3 Zn2+ in active site; the PDB entries are earlier structures of Nfo-DNA complexes
Test: stopped-flow 2-aminopurine fluorescence, inhibition of […]'-5' exonuclease
Type: biochemical

IC50 [mM]	SMILES
3.2 ± 0.4	Nc1nc2c(ncn2[C@H]2C[C@H](O)[C@@H](COP(=O)(O)O)O2)c(=O)[nH]1 [2′-deoxyguanosine monophosphate]
4.4 ± 0.5	Cc1cn([C@H]2C[C@H](O)[C@@H](COP(=O)(O)O)O2)c(=O)[nH]c1=O [thymidine monophosphate]
